For 85 compounds, XC50 results are on record in ChEMBL document CHEMBL1157539, “Thousands of chemical starting points for antimalarial lead identification” (Nature, 2010).

Molecules are shown by their SMILES.

The experiment has as its system Plasmodium falciparum. As to the kind of experiment: GSK_TCMDC: Inhibition of Plasmodium falciparum 3D7 in whole erythrocytes, using parasite LDH activity as an index of growth. The following applies: Plasmodium falciparum, 3D7. It is filed as functional, organism-based.
Consider `CCOC(=O)CCCOc1c(OC)cc(Cc2cnc(N)nc2N)cc1OC`, for which the XC50 was 778 nM. Consider `CC1CCCN1Cc1ccc(-c2ccc3c(=O)cc(CCc4cccc(F)c4F)n(CC(=O)N(C)Cc4ccc(-c5ccc(C(F)(F)F)cc5)cc4)c3n2)cc1` (stereo not given), for which the XC50 was 823 nM.

The compound `COc1ccc(Cl)cc1NC(=O)Nc1cc(C)nc2ccccc12` displayed an XC50 of 287 nM. With `Cc1cccc2nc(-c3cccc(-c4ccc(NC(=O)c5ccoc5)cc4)c3)[nH]c12` the figure was 703 nM. With `CC(Cc1ccc(OCCOc2ccccc2)cc1)NCC(O)c1cccc(C(F)(F)F)c1` (stereo not given) the figure was 968 nM; with `CC(C)c1ccc(-c2nc3cc(Cl)cnc3[nH]2)cc1`, 857 nM. Compound `Cc1ccc(C(=O)Nc2cc(S(=O)(=O)N3CCCC3)ccc2OCC(F)(F)F)cc1` returned an XC50 of 851 nM. For `NCc1ccc(-c2ccc3c(N)nccc3c2)cc1`, the XC50 was determined as 885 nM. `CCCNC(=O)C1CCN(C(c2ccc(Cl)cc2)c2ccc(Cl)cc2)CC1` returned an XC50 of 479 nM. Take `Cn1c(CN2CCC(N3CCc4cc(NC(=O)c5ccco5)ccc43)C2)cc2ccccc21` (stereo not given): the XC50 came out at 876 nM. With `COc1cc2c(cc1OC)CN(c1cc(N)c3cc(OC)c(OC)cc3n1)CC2` the figure was 552 nM. Regarding `Cc1cc(N[C@@H](Cc2ccccc2)C(=O)Nc2ccccc2)nc(NCCc2ccc(F)cc2)n1`, the XC50 came to 860 nM. In the case of `O=C(Cc1cccs1)NC(CCCN1CCC(Oc2cccc(Cl)c2)CC1)c1ccc(Cl)c(Cl)c1` (stereo not given), the XC50 came out at 247 nM.

In the case of `O=C(Nc1ccc(Cl)cc1)OCCn1nnnc1C(c1ccc(Cl)cc1)N1CCOCC1` (stereo not given), the XC50 stood at 1180 nM. On to `c1ccc(Oc2ccc(Nc3ccnc4cc(-c5cccc(CNCCN6CCOCC6)c5)ccc34)cc2)cc1`, for which the XC50 came out at 391 nM.

As to `COc1ccc(CNC2CCN(C)CC2)cc1-c1ccc(S(=O)(=O)NCc2cccnc2)s1`, the XC50 worked out at 835 nM. For `C[C@H](Cc1ccc(OCCNC[C@H](O)c2cccc(Cl)c2)cc1)NC[C@H](O)c1ccc(Cl)c(Cl)c1`, the XC50 is 958 nM. Compound `Nc1ccc(-c2nc3cc(-c4ccc5[nH]c(-c6ccc(N)cc6)nc5c4)ccc3[nH]2)cc1` registered an XC50 of 129 nM. Under `FC(F)(F)c1ccc2[nH]c(-c3ccc(-c4cccc(CNCC5CCCO5)c4)s3)nc2c1` (stereo not given) stands 367 nM. The compound `COc1ccc2c(=NN=Cc3ccc(OC)c4ccccc34)cc(C)[nH]c2c1` came in with an XC50 of 599 nM. The compound `Oc1cccc(-c2nc(-c3ccccc3)c(-c3ccc(Oc4ccc(-c5[nH]c(-c6cccc(O)c6)nc5-c5ccccc5)cc4)cc3)[nH]2)c1` came in with an XC50 of 855 nM. Under `Cc1ccc(-c2ccc3c(c2)C=C(C(=O)NC2CCN(CCNC(=O)c4cccs4)CC2)CCC3)cc1` stands 227 nM; under `O=C(NCC1CCN(CC2CCCCC2)C1)c1cc(-c2cccc(C(F)(F)F)c2)cs1` (stereo not given), 738 nM; under `CN1CCN(Cc2c(O)ccc3c(=O)c(Oc4ccc(C(C)(C)C)cc4)c(C(F)(F)F)oc23)CC1`, 812 nM.

As to `CN1CCCc2ccc(NC(=O)C=Cc3ccc(-c4ccc(F)cc4F)o3)cc2C1`, the XC50 was determined as 522 nM. As to `CN1CCCC(CN2CCN(Cc3ccc(-c4ccc(-c5nc6cc(F)ccc6[nH]5)s4)cc3)CC2)C1` (stereo not given), the XC50 was found to be 127 nM. The compound `O=C(Nc1cccc(-c2nn3ncccc3c2-c2ccnc(Nc3cccnc3)n2)c1)c1c(F)cccc1F` yielded an XC50 of 528 nM. `Cc1c(C)c2c(c(C)c1O)CC[C@@](C)(C(=O)NC1CCC(CN3CCC(c4c[nH]c5ccccc45)CC3)CC1)O2` (stereo not given in full): the XC50 was 965 nM. Compound `CN(C)CCCNC(=O)c1ccccc1Sc1ccccc1C#N` registered an XC50 of 1140 nM.

In the case of `Cc1ccc(Nc2nc(C)cc(NC3CCCC3)n2)cc1`, the XC50 came out at 292 nM. Compound `COc1ccc2nc(N(CCCn3ccnc3)C(=O)C=Cc3cccs3)sc2c1` had an XC50 of 1050 nM.

Take `COc1ccc(CCc2ccc(-c3c(C)[nH]c(C)c(Cl)c3=O)cc2)cc1OC`: the XC50 came to 94 nM. `CS(=O)(=O)c1ccc(CCNCc2ccc(-c3ccc(CN(C(=O)C4CC(=O)c5ccccc54)C4Cc5ccccc5C4)cc3)nc2)cc1` (stereo not given): the XC50 was found to be 858 nM. Under `Clc1ccc(Nc2nc3ccc(Cl)cc3nc2Nc2ccc(Cl)cc2)cc1` stands 133 nM; under `O=C(/C=C/c1ccc(Cl)c(Cl)c1)NCCCCCN1CCC(NC(=O)Nc2ccc(Cl)c(Cl)c2)CC1`, 892 nM; under `CN1CCN(C(C(=O)NCc2cc(Cl)cc(Cl)c2)c2ccccc2-c2ccsc2)CC1` (stereo not given), 936 nM. With `O=C(NCCN1CCCc2ccccc21)C1CCN(c2nc(-c3ccc(Cl)cc3)no2)CC1` the figure was 695 nM. `CCC[C@@H]([C@@H](CC1CCCCC1)C(=O)N[C@H](C(=O)Nc1nccs1)C(C)(C)SCCOCCOCC)N(O)C=O`: the XC50 worked out at 82.2 nM.

`CC(=O)NCCNc1nccc(N2CCc3ncnc(Nc4ccc(OCc5ccccn5)c(Cl)c4)c3C2)n1` gave an XC50 of 822 nM. `Nc1ccnc2ccc(NC(=O)CCCCCc3ccccc3)cc12` returned an XC50 of 860 nM.

The compound `FC(F)(F)c1ccc2[nH]ccc(=NN=Cc3ccccc3)c2c1` came in with an XC50 of 1170 nM. For `Cc1ccc(OCCCCON2C(=N)N=C(N)NC2(C)C)cc1C`, the XC50 was 3.2 nM. Consider `O=C(Nc1ccc(Cl)cc1)Nc1cccc(-c2cccc(-c3nc4cc(C(F)(F)F)ccc4[nH]3)c2)c1`, for which the XC50 amounted to 227 nM. The compound `COc1ccc(-c2cnn3ccc(Nc4cc(OC)c(OC)c(OC)c4)nc23)cc1OC` came in with an XC50 of 650 nM.

`O=C(/C=C/c1ccc(Cl)c(Cl)c1)NCCCCCN1CCC(NC(=O)Nc2cccc(C(F)(F)F)c2)CC1` came in with an XC50 of 697 nM. `N=C(N)NCCN(Cc1ccccc1)c1ccccc1`: the XC50 was found to be 345 nM. Compound `O=C(/C=C/c1cccc(OC(F)(F)F)c1)NCCCCCN1CCC(c2c[nH]c3ccccc23)CC1` showed an XC50 of 958 nM. The compound `Nc1nccc2ccc(-c3ccc4nccn4c3)cc12` came in with an XC50 of 101 nM. Compound `Cc1cc(OCCCN2CCC(NS(=O)(=O)c3ccc(Cl)c(Cl)c3)CC2)c2ccccc2n1` came in with an XC50 of 897 nM. The compound `CCOc1cc(C(=O)NCc2cc(Cl)cc(Cl)c2)ccc1-c1nc2cc(Cl)ccc2[nH]1` returned an XC50 of 730 nM. In turn, `CC(=O)c1ccc(-c2ccc(C(=O)NCCCCN3CCC(c4ccc5c(c4OCC(N)=O)CCCC5)CC3)cc2)s1` came in with an XC50 of 893 nM. For the compound `O=C(c1cccc(-c2ccc(-c3nc4cc(C(F)(F)F)ccc4[nH]3)cc2)c1)N1CCCCC1CN1CCC(O)C1` (stereo not given), the XC50 was found to be 465 nM. On to `O=C(Nc1ccc2c(c1)CCC2)c1ccc(N2CCN(c3ccncc3)CC2)cn1`, for which the XC50 worked out at 862 nM. `NOCCCCOc1ccc(Br)cc1`: the XC50 was determined as 189 nM. `CN(C)[C@@H]1C(O)=C(C(N)=O)C(=O)[C@@]2(O)C(O)=C3C(=O)c4c(O)ccc(C#Cc5ccccn5)c4C[C@H]3C[C@@H]12` showed an XC50 of 760 nM. The compound `CN(C)CCCNCCS(=O)(=O)c1cccc(Nc2ccc(-c3cccc(N(C)C)c3)cn2)c1` had an XC50 of 859 nM.

On to `CCCCc1cc(N2CCC(NC(C)=O)C2)nc(Nc2ccc(C)cc2)n1` (stereo not given), for which the XC50 is 866 nM. In turn, `CC(=O)N(Cc1cccc(-c2cccc(CNCCc3ccccc3)c2)c1)C1CCN(Cc2ccccc2)CC1` yielded an XC50 of 670 nM. Turning to `Cc1cccc2nc(-c3cccc(-c4ccc(CN5CCN(CCO)CC5)cc4)c3)[nH]c12`, the XC50 turned out to be 823 nM. In turn, `COc1cccc(C(=O)Nc2ccc(-c3nc4ccccc4[nH]3)cc2)c1` came in with an XC50 of 802 nM.

For the compound `COc1ccccc1CN1CCC(CNC(=O)c2cc(-c3ccc(N(C)C)cc3)cs2)C1` (stereo not given), the XC50 was determined as 1270 nM. `Nc1c2ccccc2nc2cc(C(F)(F)F)ccc12` registered an XC50 of 842 nM. `O=C(Nc1ccc(Cl)c(Cl)c1)Nc1ccc(F)c([N+](=O)[O-])c1` returned an XC50 of 696 nM.

Turning to `CCOc1ccc(CCC(=O)O)cc1OCC`, the XC50 was determined as 1030 nM.

Compound `Cc1ccc(C(=O)Nc2ccc(Nc3ccnc4cc(-c5nccs5)ccc34)cc2O)cc1` returned an XC50 of 47.8 nM. Turning to `CC(Cc1ccc(NC(=O)CCNCc2ccccc2)cc1)NCCc1cccc(Cl)c1` (stereo not given), the XC50 amounted to 147 nM. `O=C(CN1CCN(C(=O)c2ccco2)CC1)Nc1ccc(Br)cc1Cl` showed an XC50 of 773 nM. As to `CCN(CC)C(=O)C1CCN(C(C(=O)N2CCN(CC(=O)N3CCCC3)CC2)c2cc3ccccc3o2)CC1` (stereo not given), the XC50 worked out at 707 nM. With `CN1CCCN(c2ccnc3cc4c(cc23)N(C(=O)c2ccc(Cl)c(Cl)c2)CC4)CC1` the figure was 870 nM; with `OC(CN1c2ccccc2Sc2ccccc21)CN(C1CCCCC1)C1CCCCC1` (stereo not given), 651 nM; with `O=C(Nc1cccc(-c2ccc(-c3nc4cc(C(F)(F)F)ccc4[nH]3)cc2)c1)c1cccnc1`, 572 nM.

For `O=C(c1ccc(-c2ccc(-c3nc4ccccc4[nH]3)s2)cc1)N1CCCCC1CN1CCC(O)C1` (stereo not given), the XC50 is 1050 nM. Under `CC[C@H]1CN2CC[C@H]1C[C@H]2[C@H](O)c1cc(-c2ccccc2C(F)(F)F)nc2ccc(OC)cc12` stands 234 nM; under `CC(C)c1cc2c(cc1O)C(Cc1ccccc1Cl)N(C)CC2` (stereo not given), 732 nM; under `C=CCn1c(SCc2c(C)noc2C)nc2scc(-c3cccs3)c2c1=O`, 1100 nM. With `COc1c(C2CCN(CCCCNC(=O)c3noc(-c4ccc(C#N)cc4)n3)CC2)ccc2c1CCCC2` the figure was 776 nM.

`Cc1cccc(-c2c(C)nc(N)nc2N)c1` gave an XC50 of 1150 nM. `COc1ccc2[nH]c(C)cc(=NN=Cc3cccc(F)c3)c2c1` registered an XC50 of 285 nM. Compound `CC(=O)Nc1nc(C(=O)Nc2ccc(-c3cccc(-c4nc5cc(F)ccc5[nH]4)c3)cc2)cs1` showed an XC50 of 292 nM. In turn, `CC1(C)N=C(NC(=O)Nc2ccc([N+](=O)[O-])cc2)N=C(N)N1OCc1cccc2ccccc12` came in with an XC50 of 59.5 nM. With `Cc1ccc(NC(=O)c2ccc(CN3CCCN(Cc4cccc(Cl)c4)CC3)cc2)cc1C` the figure was 1210 nM; with `CC[C@H]1CN2CC[C@H]1C[C@H]2[C@H](O)c1cc(-c2ccc(F)cc2C)nc2ccc(OC)cc12`, 157 nM.

Regarding `CS(=O)(=O)Nc1ccc2c(C3CCN(CC4CCN(C(=O)/C=C/c5ccc(Cl)c(Cl)c5)CC4)CC3)c[nH]c2c1`, the XC50 is 761 nM.

Regarding `C=C[C@H]1CN2CC[C@H]1C[C@H]2[C@H](O)c1ccnc2ccc(OC)cc12`, the XC50 came to 426 nM. With `COc1ccccc1CCNC(=O)c1cc(Br)cc(N2CCN(c3ccncc3)CC2)c1` the figure was 1270 nM.
